Results reported in patent US11993574B2, “Pyrazole and imidazole compounds for inhibition of IL-17 and RORgamma” (REATA PHARMACEUTICALS, INC., priority 2018, dated 2024).

Legend:
Assay type in all cases: cell-based
IL-17A = assay: IL-17 release from differentiated primary human T-cells (IL-17A HTRF assay); conditions: primary human CD4+ T cells differentiated into Th17 cells, 45-hour incubation, IL-17A in supernatant; read-out: hIL17 IC50
Experimental: C. IL-17 Release from Differentiated Primary Human T-Cells and Cell Viability
Primary human cryopreserved CD4+ T Cells (Lonza) were thawed according to the manufacturer's recommendations and plated either in Lymphocyte Growth Medium-3 (LGM-3) or X-VIVO 20 media (Lonza) in 96-well tissue culture plates at a density of ˜2×10^5 cells per well, and allowed to recover for approximately 4 hours at 37° C. with 5% CO2 in a humidified atmosphere. After the recovery step, DMSO (vehicle) or test compound at doses ranging from 2 to 500 nM or 4 to 1000 nM in a three-fold dilution series was added to the cells. Three replicate wells were tested for each treatment condition. Final DMSO concentration in each well was 0.1%. Immediately after treatment, CD4+ T cells were activated by adding Dynabeads Human T-Activator CD3/CD28 (Life Technologies; bead-to-cell ratio of 1:2.5) and differentiated into Th17 cells by adding a mixture of the following cytokines: transforming growth factor-β (TGF-β, 5 ng/mL), IL-6 (20 ng/mL), IL-23 (20 ng/mL), and IL-1β (10 ng/mL). Undifferentiated control cells received only cytokine IL-2 (50 ng/mL). All human recombinant cytokines were purchased from R&D Systems. Following a 45-hour incubation at 37° C. with 5% CO2 in a humidified atmosphere, the plates were centrifuged for 3 minutes at 250×g, and half of the supernatant was transferred to anew plate to be used in the IL-17A assay (see below). Cell viability was assessed in the original plate using the CyQuant Direct Assay (Life Technologies). CyQuant reagent (an amount equal to 10% of remaining media volume) was added to the wells, and the plates were then incubated at 37° C. for 75 min. Fluorescence was read on a SpectraMax M2e spectrophotometer at 480 nm (excitation) and 535 nm (emission) wavelengths. CyQuant values from test compound samples were normalized to those from DMSO-treated samples. The concentration of IL-17A in the supernatant was measured using the Homogeneous Time-Resolved Fluorescence (HTRF) assay (Cisbio Bioassays) according to the manufacturer's protocol. The assay was performed at room temperature in low volume, solid white 384-well plates (Greiner Bio-One). Samples and standards (serially-diluted human recombinant IL-17A (0 to 5,000 pg/mL concentration range; Cisbio Bioassays) were incubated with the anti-human IL-17A antibody conjugates (the HTRF donor and acceptor pair) for 16 hours and fluorescence was measured using a Pherastar FS microplate reader (BMG Labtech) in the HTRF mode (excitation at 337 nm and emission at 665 nm and 620 nm). IL-17A levels were assessed in duplicate aliquots of supernatant from each well resulting in a total of six readings per test condition. The 665 nm/620 nm signal ratio was calculated and the concentration of IL-17A in each sample was determined by interpolation from the standard curve. The amount of IL-17A from test compound treated samples were normalized to that of the vehicle-treated samples, set to 100%. Data were analyzed using GraphPad Prism (GraphPad Software, La Jolla California USA). Concentrations of test compound were transformed by taking the logarithm of each concentration used. The IC50 values for compound-mediated reduction in IL-17A levels and cell viability were determined by non-linear regression analysis using the log(inhibitor) vs. normalized response with variable slope equation. Inhibition that is closely correlated with reduced viability is considered to be non-specific.

[1] = molecular target: T1, Human RAR-related Orphan Receptor Gamma (RORγ) (Homo sapiens, UniProt P51449); assay: RORγ assay (GAL4-RORγ hybrid luciferase reporter, Indigo Biosciences); conditions: inverse-agonist activity, GAL4-RORγ reporter cells, 23 hours
T1 sequence (P51449 269-508 limits assumed): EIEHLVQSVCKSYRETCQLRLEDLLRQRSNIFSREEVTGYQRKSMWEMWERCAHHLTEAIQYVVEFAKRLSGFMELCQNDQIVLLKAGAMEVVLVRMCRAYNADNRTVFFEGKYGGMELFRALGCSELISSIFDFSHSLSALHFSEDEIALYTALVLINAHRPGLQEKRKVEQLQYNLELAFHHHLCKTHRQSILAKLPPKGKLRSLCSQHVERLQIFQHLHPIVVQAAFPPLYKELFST
Description: B. RORγ Assay and Cell Viability
The RORγ assay system was purchased from Indigo Biosciences. This nuclear receptor assay utilizes a human cell line that has been engineered to express a hybrid form of the Human RAR-related Orphan Receptor Gamma (RORγ) at high levels. The N-terminal DNA binding domain (DBD) of the native RORγ receptor was substituted with the yeast GAL4-DBD to generate the GAL4-RORγ hybrid nuclear receptor. The reporter cell line is transfected with a plasmid that encodes the beetle luciferase gene under the control of the GAL4 upstream activating sequence (UAS). GAL4 binds to the UAS and increases transcription of downstream target genes. The GAL4-RORγ hybrid is constitutively active; therefore, the principle application of this reporter assay system is to screen test compounds to quantify inverse-agonist activities against human RORγ. Because the ligand binding domain (LBD) of RORγ is identical to the LBD of RORγt, this assay is an accurate surrogate for evaluating activity of experimental ligands against RORγt. To assess the RORγ inverse-agonist activity of the test compounds, reporter cells were plated in white 96-well plates in triplicate and were treated with DMSO (vehicle) or test compound (concentration ranges of 7.8-2000 nM) at 37° C. with 5% CO2 in a humidified atmosphere for 23 hours. After this incubation, luciferin was added to the wells and luciferase activity was determined by measuring the luminescence signal using a BMG Pherastar microplate reader. Viability was determined using the Live Cell Multiplex Assay (Indigo Biosciences). Values from test compound samples were normalized to those from DMSO-treated samples. Data were analyzed using GraphPad Prism version 6.00 for Windows (GraphPad Software, La Jolla Calif. USA). A non-linear regression analysis with log (inhibitor) vs. normalized response using a variable slope was applied to fit the data and determine the IC50 values for inhibition of RORγ and cell viability. Inhibition that is closely correlated with reduced viability is considered to be non-specific.

[2] = test system: Nrf2 transcription factor; assay: AREc32 luciferase reporter assay; conditions: Homo sapiens; AREc32 cells, 19 hours; concentration required to increase GST ARE luciferase reporter activity by 2-fold; read-out: NRF2 ARE 2-Fold (EC2×)
Description: A. AREc32 Luciferase Reporter Assay
The AREc32 luciferase reporter assay allows for quantitative assessment of the endogenous activity of the Nrt2 transcription factor in cultured mammalian cells. AREc32 cells are derived from MCF-7 human breast carcinoma cells that were stably transfected with a reporter construct that contains the firefly luciferase gene located downstream of eight copies of the rat GSTA2 antioxidant response element (ARE) sequence (Wang et al., 2006; Concept Life Sciences Integrated Discovery and Development Services Ltd (CLSIDDS)). Active Nrf2 binds to the ARE sequences and increases expression of the firefly luciferase gene. To assess the Nrf2-activating potential of the test compounds, AREc32 cells were plated in black […] plates at a density of 20,000 cells per well in triplicate in DMEM+10% FBS+0.8 mg/mL Geneticin and incubated at 37° C. with 5% CO2 in a humidified atmosphere. The next day, cells were treated with DMSO (vehicle) or test compound (concentration ranges of 0.4-200 nM or 3.9-2000 nM) for 19 hours. Luciferase activity was determined using the ONE-Glo Luciferase assay (Promega). The luminescence signal was measured on a BMG Pherastar microplate reader. The mean luminescence value from test compound-treated wells was normalized to that from DMSO-treated wells and was represented as fold-induction. Data were analyzed using GraphPad Prism version 6.00 for Windows, GraphPad Software, La Jolla Calif. USA. A non-linear regression curve with log (agonist) vs. response using a variable slope was used to fit the data. Where applicable, a maximum threshold value of 50-fold over DMSO was set. EC2× values were interpolated from the curve. EC2× corresponds to the concentration of test compound required to increase GST ARE Luciferase reporter activity by 2-fold.

IC50 (IL-17A) | IC50 [1] | Structure (SMILES) | EC (2-fold) [2]
19 nM | 80 nM | C[C@H]1C(=O)C(C#N)=C[C@@]2(C)c3c(c(-c4ccccc4)nn3-c3ccc(-c4ccccc4)cc3)CC[C@H]12 [T21] | 0.161 µM
56 nM | 175 nM | C[C@H]1C(=O)C(C#N)=C[C@@]2(C)c3nn(-c4ccc(-c5ccccc5)cc4)c(-c4ccccc4)c3CC[C@H]12 [T22] | 1.05 µM
89 nM | 118 nM | C[C@H]1C(=O)C(C#N)=C[C@@]2(C)c3c(c(-c4ccccc4)nn3-c3cccc4ccccc34)CC[C@H]12 [T23] | 0.19 µM
30 nM | 284 nM | C[C@H]1C(=O)C(C#N)=C[C@@]2(C)c3nn(-c4cccc5ccccc45)c(-c4ccccc4)c3CC[C@H]12 [T24] | 0.827 µM
28 nM | 92 nM | CC(C)c1ccc(-n2nc(-c3ccccc3)c3c2[C@]2(C)C=C(C#N)C(=O)[C@H](C)[C@H]2CC3)cc1 [T25] | 0.149 µM
61 nM | 104 nM | CC(C)c1ccc(-n2nc3c(c2-c2ccccc2)CC[C@@H]2[C@@H](C)C(=O)C(C#N)=C[C@@]32C)cc1 [T26] | 0.944 µM
61 nM | 132 nM | C[C@H]1C(=O)C(C#N)=C[C@@]2(C)c3c(c(-c4ccccc4)nn3C3CCOCC3)CC[C@H]12 [T27] | 0.204 µM
136 nM | 90 nM | C[C@H]1C(=O)C(C#N)=C[C@@]2(C)c3nn(C4CCOCC4)c(-c4ccccc4)c3CC[C@H]12 [T28] | 0.719 µM
100 nM | 91 nM | Cc1ccc(-n2nc(-c3ccccc3)c3c2[C@]2(C)C=C(C#N)C(=O)[C@H](C)[C@H]2CC3)nc1 [T31] | 0.298 µM
170 nM | 124 nM | Cc1ccc(-n2nc(-c3ccccc3)c3c2[C@]2(C)C=C(C#N)C(=O)[C@H](C)[C@H]2CC3)cn1 [T32] | 0.258 µM
87 nM | 87 nM | C[C@H]1C(=O)C(C#N)=C[C@@]2(C)c3c(c(-c4ccccc4)nn3-c3cccc(-c4cccnc4)c3)CC[C@H]12 [T34] | 0.245 µM
58 nM | 129 nM | C[C@H]1C(=O)C(C#N)=C[C@@]2(C)c3c(c(-c4ccccc4)nn3-c3cccc(-c4ccccc4)c3)CC[C@H]12 [T35] | 0.328 µM
22 nM | 87 nM | C[C@H]1C(=O)C(C#N)=C[C@@]2(C)c3c(c(-c4ccccc4)nn3-c3ccc(-c4ccccc4F)cc3)CC[C@H]12 [T36] | 0.233 µM
24 nM | 32 nM | C[C@H]1C(=O)C(C#N)=C[C@@]2(C)c3c(c(-c4ccccc4)nn3-c3ccc(-c4cccnc4)cc3)CC[C@H]12 [T37] | 0.167 µM
37 nM | 46 nM | Cc1noc(C)c1-c1ccc(-n2nc(-c3ccccc3)c3c2[C@]2(C)C=C(C#N)C(=O)[C@H](C)[C@H]2CC3)cc1 [T38] | 0.215 µM
31 nM | 25 nM | C[C@H]1C(=O)C(C#N)=C[C@@]2(C)c3c(c(-c4ccccc4)nn3-c3ccc(-c4ccncc4)cc3)CC[C@H]12 [T39] | 0.139 µM
23 nM | 80 nM | C[C@H]1C(=O)C(C#N)=C[C@@]2(C)c3c(c(-c4ccccc4)nn3-c3ccc(-c4cccc(F)c4)cc3)CC[C@H]12 [T40] | 0.238 µM
25 nM | 83 nM | Cc1ccc(-c2ccc(-n3nc(-c4ccccc4)c4c3[C@]3(C)C=C(C#N)C(=O)[C@H](C)[C@H]3CC4)cc2)cc1 [T41] | 0.249 µM
35 nM | 33 nM | C[C@H]1C(=O)C(C#N)=C[C@@]2(C)c3c(c(-c4ccccc4)nn3-c3ccc(-c4ccc(CO)cc4)cc3)CC[C@H]12 [T42] | 0.13 µM
43 nM | 53 nM | C[C@H]1C(=O)C(C#N)=C[C@@]2(C)c3c(c(-c4ccccc4)nn3-c3ccc(-c4ccccc4CO)cc3)CC[C@H]12 [T43] | 0.174 µM
41 nM | 83 nM | Cc1ccccc1-c1ccc(-n2nc(-c3ccccc3)c3c2[C@]2(C)C=C(C#N)C(=O)[C@H](C)[C@H]2CC3)cc1 [T44] | 0.242 µM
22 nM | 44 nM | C[C@H]1C(=O)C(C#N)=C[C@@]2(C)c3c(c(-c4ccccc4)nn3-c3ccc(-c4cccc(CO)c4)cc3)CC[C@H]12 [T45] | 0.147 µM
20 nM | 65 nM | COc1ccc(-c2ccc(-n3nc(-c4ccccc4)c4c3[C@]3(C)C=C(C#N)C(=O)[C@H](C)[C@H]3CC4)cc2)cc1 [T46] | 0.219 µM
